Source: patent US6586006B2, “Solid delivery systems for controlled release of molecules incorporated therein and methods of making same” (Elan Drug Delivery Limited, priority 1994, dated 2003)

Legend:
Format in all cases: physicochemical
[1] = Glass transition temperature (Tg) by thermal analysis (DSC)
Description: In general, the tendency to crystallize, from a cooling melt or with reducing solvent, is low. Both devitrification and the fluidity of the melt at temperatures close to Tg, can be controlled by modifiers such as other derivative sugars and certain organic actives. The following two tables, generated as described in the Examples presented below, provide Tg and melting temperature data for a variety of HDCs suitable for use, either alone, or in a composite glass, herein.
Dissolution of synthetic corticosteroid XPDO (described below) into a TOAC melt and quenching to form the vitreous solid dose delivery system was achieved. By looking at the release of MB9 into aqueous solution, these experiments tested the compatibility of the steroid within the glass, subsequent recovery of the steroid and studied the effect that XPDO has on the properties of the delivery system formed looking at the release of MB9 into aqueous solution. TOAC (3.21 g) was pre-melted at 150° C., before being quenched to glass. The glass was finely ground with XPDO (0.15 g) before being remelted. The clear melt was again quenched to yield the composite HDC/active glass. Thermal analysis was carried out on a Rheometric Scientific Differential Scanning Calorimeter (DSC) at a heating rate of 10°/min under a nitrogen atmosphere. The following samples were prepared:
Studies were performed using the synthetic corticosteroid XPDO dissolved in DCM. The solution was spray dried in a Buchi B-191 spray drier, using an inlet temperature of 40° C. […] XPDO was incorporated at 20 wt %. The powder was completely amorphous as confirmed by thermal analysis (Tg=46° C.).

[2] = Resistance of glasses to devitrification on exposure to relative humidity
Protocol: Glasses were made by evaporating DCM on a hotplate set at 65° C. from a 25% solutions of TOAC (50% solutions often deposited crystals in the pipette tip). Drying was carried out for 2 hr to be certain of complete dryness. Uniform glasses were produced by using an Eppendorf-type pipette to deliver 100 μl to a slide recently placed on the hotplate and then removing about 50 μl by using the clear/expel volume of the pipette.
XPDO was therefore incorporated into a TOAC glass by dissolving both crystalline TOAC and XPDO in DCM and evaporating the solvent at 70° C. on a hotplate. XPDO was used in proportions of 10% and 20% of total solids in the final TOAC glass.
The resulting glasses were tested for their utility as controlled release matrices in two ways. First, they were assessed for their ability to resist devitrification on exposure to high RH at RT. Second, they were immersed in water or phosphate-buffered saline (PBS) to study their solubility and rate of erosion by surface recrystallization.

[3] = Weight loss and dye release of glucose pentaacetate glass discs in water
Protocol: Another glass disc of similar dimensions was prepared from α-D-glucose pentaacetate and placed in 1 l of water, which was replaced daily. After 7 days, the glass had lost 20% of its original weight. The release rate of the dye was higher in the first day as the release happened mainly from the surface of the glass disc.

[4] = Water resistance and dye release of carboxylate, HDC or plastic coated/coformulated systems
Protocol: These particles were coated by adding them to a saturated solution of zinc palmitate (ZnC16) in toluene and cooling from 60° C. to 30° C. This deposited a layer of ZnC16 on the particles which were then filtered under vacuum to remove the excess ZnC16, washed with acetone and air-dried.
A fine amorphous film (100-200 μm thickness) was formed by casting on silicate glass slides and evaporating off the solvent in a warm air-stream.
Amorphous films were also formed from calcium neodecanoate dissolved in chloroform (0.5 g/10 ml) as described above.
Films of glucose glass incorporating 1 wt % MB9 were formulated by quenching from the melt. These films were coated with thin (100 μm thickness) amorphous metal carboxylate films by evaporation of solution of the carboxylate in chloroform (0.5 g/10 ml). The metal carboxylates used were aluminum hexanoate and octanoate, calcium neodecanoate and magnesium isostearate and neodecanoate. Dissolution of the films was monitored by release of dye into distilled water.

[5] = Enzyme activity after exposure to acetone, dried with or without trehalose; details: dried with 50% trehalose versus without, FIGS. 5A and 5B
Protocol: A 0.1 mg/ml horseradish peroxidase solution or a 1 mg/ml alkaline phosphatase/4 mg/ml bovine serum albumin solution was dried in an FTS Systems freeze drier with or without 50% trehalose. The drier was used as a vacuum drier and the mixtures dried without freezing. Four times the volume of solvent was added and the solution was allowed to evaporate to dryness. The contents were redissolved in 5 milliliters of water, and enzyme activity was assessed, in serial dilution, by commercial ‘kit’ reagents.

[6] = Controlled release of encapsulated MB9 dye from HDC glass beads/discs; details: FIG. 11
Protocol: In the following experiments, the delivery system was preformulated, whether as a single material, or as a mixed composition. This was carried out by intimately grinding the component HDCs together, followed by careful, controlled melting in a furnace, between 120-140° C. and with normal atmosphere to form melts. The melts were quenched to glass by pouring over a brass block. This glass was then finely ground.
MB9 dye (1 or 5 wt %) was mixed with the ground glass prior to re-melting at 140° C. The melt was quenched to form small glass beads (2.5 mm diameter) which were used in controlled release experiments.
Controlled release of encapsulated dye was monitored by suspending three such beads in 25 or 50 ml of deionized water or PBS solution at ambient temperatures (27-30° C.) or at 37° C., as indicated. The media were undisturbed, except for periodic stirring and were replaced at set intervals with fresh media (generally at 72 hr intervals). Both single HDC glasses and composite HDC glasses were formed. […] The use of other HDCs as glass modifiers in the composite HDC formulations enable the tailoring of the glasses formed to yield the release characteristics desired.
In FIG. 8, the results were obtained from TOAC glass discs (6 mm×2.5 mm) with MB9 dye evenly dispersed therein at 2 wt %. Release was controlled at 25° C. with gentle stirring and media changes at regular intervals. Note the linear release of MB9 dye over a 55 day period. The results presented in FIG. 8 indicate that a pure HDC vitreous delivery vehicle system gives zero-order release rates of guest substances. The results presented in FIGS. 9-14 show variation on release rates by changing the ratios of different HDCs in the delivery systems, changing the carbohydrate backbone length and by changing the nature of the derivative on the carbohydrate backbone. In each instance it is clear that the HDC delivery systems allow a wide range of release rates that can be tailored to the guest substance and the delivery thereof.

[7] = Phycoerythrin fluorescence (functional activity) after solvents, heat or processing
Protocol: Glasses were formed by drying 20% solutions of either trehalose, lactitol, palatinit or GPS, containing MWPB and 1 mg/ml of the fluorescent algal protein phycoerythrin under vacuum (80 mTorr) for 16 hrs. The glasses were ground in a domestic coffee mill to yield a coarse powder which was used to fill the spinning head of a Kando K1 Kandy Floss cotton candy machine (GB Patent No. 1533012). The motor was then switched on and the powdered sugar glass heated at element settings between 5 and 9. Residence time in the spinning head was 2-10 min and a continuous process was maintained by constantly topping up the head.
A 400 μg/ml phycoerythrin solution was freeze-dried in a Labconco freeze-drier with or without 20% trehalose. The dried protein powder was exposed to a number of organic solvents for 72 hrs.
A 400 μg/ml phycoerythrin solution was freeze-dried in the FTS drier with or without 20% trehalose. […]

[8] = freeze-dried powder in pyridine

Molecule: CCCCCCCCO[C@@H]1O[C@H](COC(C)=O)[C@@H](OC(C)=O)[C@H](OC(C)=O)[C@H]1OC(C)=O [OGTA, 1-0-Octyl-β-D-glucose tetraacetate]
- Tg/° C. ([1]; single HDC glasses (Table 1)): −10 °C

Molecule: CCC(=O)OCC1OC(OC2OC(COC(=O)CC)C(OC(=O)CC)C(OC(=O)CC)C2OC(=O)CC)C(OC(=O)CC)C(OC(=O)CC)C1OC(=O)CC (stereo not shown) [TOPR, trehalose octapropanoate]
- Tg/° C. ([1]; single HDC glasses (Table 1)): 3 °C
- devitrification at RH from 75% to 95% ([2]; thin glass films and quenched disks, RT, overnight exposure): very susceptible to devitrification at high RH

Molecule: CC(=O)OC[C@H]1O[C@H](OC(C)=O)[C@H](OC(C)=O)[C@@H](OC(C)=O)[C@@H]1OC(C)=O [α-GPAC, α-glucose pentaacetate]
- Tg/° C. ([1]; single HDC glasses (Table 1)): 14 °C
- loss of original weight ([3]; glass disc in 1 l of water replaced daily, after 7 days): 20%
- rate of release of encapsulated Acid Blue dye ([3]; glass disc in water, FIG. 7): quite constant

Molecule: calcium neodecanoate
- dye release relative to film dissolution ([4]; film with MB9 in distilled water, 24 hr, Ca2+ by atomic adsorption spectroscopy): followed the dissolution of the films

Molecule: alkaline phosphatase
- resistance of enzyme activity to acetone [5]: more resistant to acetone

Molecule: CC(=O)OCC1OC(OCC2OC(OC3(COC(C)=O)OC(COC(C)=O)C(OC(C)=O)C3OC(C)=O)C(OC(C)=O)C(OC(C)=O)C2OC(C)=O)C(OC(C)=O)C(OC(C)=O)C1OC(C)=O (stereo not shown) [RUDA, raffinose undecaacetate]
- Tg/° C. ([1]; single HDC glasses (Table 1)): 55 °C
- Tg/° C. ([1]; single and composite HDC glasses, mole ratios of HDCs in glass (Table 2)): 55 °C
- MB9 release profile ([6]; TOAC/RUDA glass spheres into PBS): biphasic release rate
- initial fast release of MB9 dye ([6]; glass spheres into PBS, in 5 days): about 60%

Molecule: magnesium isostearate
- delay of dye release ([4]; glucose glass film with 1 wt % MB9 coated with 100 μm metal carboxylate film, distilled water): 10 days

Molecule: phycoerythrin
- fluorescence after exposure to organic solvent ([7]; dimethylsulfoxide, powder solubilized): remained fluorescent
- functional activity after storage at 100° C. ([7]; dried in trehalose, one month): no detectable loss of functional activity
- time by which fluorescence was lost [7, 8]: ≤ 72 h
- time fluorescence remained [7, 8]: 24 to 48 h
- fluorescence after exposure to organic solvent ([7]; freeze-dried with 20% trehalose, acetone, acetonitrile chloroform and methanol, 72 hrs): remained fluorescent
- biological activity as assessed by fluorescence ([7]; in spun sugar glass microneedles): retention of biological activity
- biological functionality by ability to fluoresce ([7]; trehalose glass powder co-melted into carboxylate glass at 95° C.): retained its biological functionality
- fluorescence in carboxylate glass formed by evaporation ([7]; trehalose glass powder in 1:1 sodium octanoate/zinc ethylhexanoate, chloroform): remained fluorescent
- fluorescence in perspex block ([7]; trehalose glass powder in perspex from chloroform): remained fluorescent

Molecule: CC(=O)OC[C@H]1O[C@@H](O[C@H]2[C@H](OC(C)=O)[C@@H](OC(C)=O)C(OC(C)=O)O[C@@H]2COC(C)=O)[C@H](OC(C)=O)[C@@H](OC(C)=O)[C@@H]1OC(C)=O (stereo partly shown) [COAC, cellobiose octaacetate]
- Tg/° C. ([1]; single HDC glasses (Table 1)): 65 °C

Molecule: horseradish peroxidase
- resistance of enzyme activity to acetone [5]: more resistant to acetone

Molecule: CC(=O)OC[C@H]1O[C@@](COC(C)=O)(O[C@H]2O[C@H](COC(C)=O)[C@@H](OC(C)=O)[C@H](OC(C)=O)[C@H]2OC(C)=O)[C@@H](OC(C)=O)[C@@H]1OC(C)=O [SOAC, sucrose octaacetate]
- Tg/° C. ([1]; single HDC glasses (Table 1)): 25 °C

Molecule: Aluminum hexanoate
- devitrification of film during dye release ([4]; 100-200 μm film, 1 wt % MB9, distilled water, 5 hr): No devitrification

Molecule: zinc palmitate [ZnC16]
- wetting of coated powder in water ([4]; spray-dried trehalose/calcium lactate/MB9 particles coated with ZnC16): remained unwetted in water for at least three days

Molecule: CC(=O)OC[C@H]1O[C@@H](OC(C)=O)[C@H](OC(C)=O)[C@@H](OC(C)=O)[C@@H]1OC(C)=O [β-GPAC, β-glucose pentaacetate]
- Tg/° C. ([1]; single HDC glasses (Table 1)): 17 °C
- solubility of glass in water [3]: poorly soluble in water
- loss of original weight ([3]; glass disc 20 mm diameter, 2.5 mm thick, flowing water, 10 days): about 33%

Molecule: OC[C@H]1O[C@H](O[C@H]2O[C@H](CO)[C@@H](O)[C@H](O)[C@H]2O)[C@H](O)[C@@H](O)[C@@H]1O [Trehalose, α-D-glucopyranosyl-α-D-glucopyranoside]
- recrystallization of glass on storage ([2]; trehalose glass from evaporating water from 50% trehalose solution): gradually recrystallized over a period of several weeks
